Values of other authors in patent US9316644B2, “Method for establishing the sensitivity of tumours to capecitabin and test kit” (SANOXSYS GMBH, priority 2006, dated 2016).
Read-outs that look alike come from different tables or passages of the source.

How the values were obtained:
[1] = test system: metastatic mamma carcinomas; conditions: for median reaction duration: in vivo; for ORR (overall response): second line after anthracycline failure
[2] = test system: progressive mamma carcinoma; conditions: of 25 patients; continuous low-dose 5-FU
[3] = test system: metastatic mamma carcinoma
[4] = test system: metastatic mamma carcinomas
[5] = 68 patients evaluable for effectivity

CC(=O)O[C@H]1C(=O)[C@@]2(C)[C@H]([C@H](OC(=O)c3ccccc3)[C@]3(O)C[C@H](OC(=O)[C@H](O)[C@@H](NC(=O)c4ccccc4)c4ccccc4)C(C)=C1C3(C)C)[C@]1(OC(C)=O)CO[C@@H]1C[C@@H]2O [Paclitaxel]
median reaction duration [1]: 9.4 months | ORR (overall response) [1]: 21%

O=c1[nH]cc(F)c(=O)[nH]1 [5-FU, 5-Fluorouracil]
patients achieving an objective reaction [2]: 8 patients

CCCCCOC(=O)Nc1nc(=O)n(C2OC(C)C(O)C2O)cc1F (centres unmarked) [capecitabine, Pentyl[1-(3,4-dihydroxy-5-methyl-tetrahydrofuran-2-yl)-5-fluoro-2-oxo-1H-pyrimidin-4-yl]aminomethanoat]
combination effect (with CPT-11, Tomudex, Mitomycin C or Cyclophosphamide): additive | combination effect (with Paclitaxel or Docetaxel): supra-additive | combination effect (with a radiation therapy): Synergetic effects | median reaction duration [1]: 9.4 months | ORR (overall response) [1]: 36% | complete remission [3, 5]: 3% | partial remission [3, 5]: 22% | diarrhea ([3]; CTC degree 1 and 2): 21% | lethargy ([3]; CTC degree 1 and 2): 18% | nausea and vomiting ([3]; CTC degree 1 and 2): 38% | hand and foot syndrome ([3]; CTC degree 1 and 2, 1250 mg/m^2 twice a day for 14 days, 7-day break, 77 patients evaluable): 40% | hand and foot toxicity ([3]; degree 3): 14% | stabilization of the disease ([3]; in vivo): 47% | tumor control ([3]; patients with intensive previous treatment): 72% | mean remission duration ([4]; human, in vivo): 241 days | median survival ([4]; human, in vivo): 384 days | median time until progression ([4]; human, in vivo): 93 days | patients with stable sequence of the illness ([4]; human, in vivo): 43% | therapy-induced fatalities ([4]; human, in vivo): did not occur | objective remission rate ([4]; intend to treat evaluation, 162 patients, 2510 mg/m^2/day for 14 days, 7-day break): 20% | tolerability ([4]; no pre-medication or primary prophylaxis necessary): excellent tolerability profile | patients whose pain was reduced by more than 50% ([4]; of 51 patients with pain figure above 20 mm on analogue pain scale at start): 47% | reaction rate ([4]; sub-group of 42 anthracycline and paclitaxel therapy refractory patients): 29%
